The values below come from ChEMBL document CHEMBL5346873, “Strategic modification of low-activity natural antimicrobial peptides confers antibacterial potential in vitro and in vivo” (Eur J Med Chem, 2023).

One data set concerns Staphylococcus aureus. Nature of the data set: Bactericidal activity against Staphylococcus aureus incubated for overnight. In kind it is functional.
Data set [1] is described as follows: Hemolytic activity in human RBC at 100 ug/ml incubated for 1 hr. The class given is toxicity, cell-based, Erythrocyte. The note with it: human red blood cells (erythrocytes), at 100 µg/mL, read-out: Activity.
The subject of a further data set is Acinetobacter baumannii. Nature of the data set: Bactericidal activity against Acinetobacter baumannii incubated for overnight. In kind it is functional.
For data set [2], the system named is Salmonella enterica. Nature of the data set: Antibacterial activity against Salmonella enterica incubated for 16 to 20 hrs. In kind it is functional. The note with it: time 16-20 hrs.
In data set [3] the test system is Staphylococcus haemolyticus. Nature of the data set: Antibacterial activity against Staphylococcus haemolyticus incubated for 16 to 20 hrs. In kind it is functional. The settings on record: time 16-20 hrs.
The subject of data set [4] is Streptococcus agalactiae. The experiment in a line: Bactericidal activity against Streptococcus agalactiae incubated overnight. The class given is functional.
Data set [5] relates to Salmonella enterica. The experiment in a line: Bactericidal activity against Salmonella enterica incubated overnight. In kind it is functional.
Data set [6] relates to Vibrio vulnificus. Nature of the data set: Antibacterial activity against Vibrio vulnificus V2 incubated for 16 to 20 hrs. In kind it is functional. The settings on record: time 16-20 hrs.
The test system of data set [7] is Pseudomonas aeruginosa. The experiment in a line: Bactericidal activity against Pseudomonas aeruginosa incubated overnight. In kind it is functional.
For data set [8], the system named is Vibrio alginolyticus. Nature of the data set: Antibacterial activity against Vibrio alginolyticus incubated for 16 to 20 hrs. The settings on record: time 16-20 hrs. The class given is functional.
In data set [9] the test system is Streptococcus iniae. Nature of the data set: Antibacterial activity against Streptococcus iniae incubated for 16 to 20 hrs. The class given is functional. The settings on record: time 16-20 hrs.
The test system of data set [10] is Escherichia coli. The experiment in a line: Bactericidal activity against Escherichia coli incubated overnight. In kind it is functional.
Data set [11] has as its system Aeromonas hydrophila. The experiment in a line: Antibacterial activity against Aeromonas hydrophila incubated for 16 to 20 hrs. The settings on record: time 16-20 hrs. In kind it is functional.
The test system of data set [12] is Candida tropicalis. Nature of the data set: Fungicidal activity against Candida tropicalis incubated overnight. The class given is functional.
The subject of data set [13] is Aeromonas hydrophila. Nature of the data set: Bactericidal activity against Aeromonas hydrophila incubated overnight. The class given is functional.
The test system of data set [14] is Vibrio anguillarum. The experiment in a line: Bactericidal activity against Listonella anguillarum incubated overnight. In kind it is functional.
Data set [15] has as its system Klebsiella pneumoniae. Nature of the data set: Antibacterial activity against NDM Klebsiella pneumoniae incubated for 16 to 20 hrs. In kind it is functional. The settings on record: time 16-20 hrs.
For data set [16], the system named is Staphylococcus haemolyticus. Nature of the data set: Bactericidal activity against Staphylococcus haemolyticus incubated overnight. In kind it is functional.
The test system of data set [17] is Streptococcus agalactiae. Nature of the data set: Antibacterial activity against Streptococcus agalactiae incubated for 16 to 20 hrs. In kind it is functional. The settings on record: time 16-20 hrs.
The test system of data set [18] is Vibrio vulnificus. Nature of the data set: Bactericidal activity against Vibrio vulnificus 204 incubated overnight. The class given is functional.
For data set [19], the system named is Vibrio vulnificus. The experiment in a line: Antibacterial activity against Vibrio vulnificus V1 incubated for 16 to 20 hrs. In kind it is functional. The settings on record: time 16-20 hrs.
Data set [20] relates to Klebsiella oxytoca. The experiment in a line: Antibacterial activity against Klebsiella oxytoca incubated for 16 to 20 hrs. The settings on record: time 16-20 hrs. The class given is functional.
Data set [21] relates to Enterococcus faecalis. Nature of the data set: Bactericidal activity against Enterococcus faecalis incubated overnight. In kind it is functional.
In data set [22] the test system is Nakaseomyces glabratus. The experiment in a line: Antifungal activity against Candida glabrata incubated for 16 to 20 hrs. The class given is functional. The settings on record: time 16-20 hrs.
In data set [23] the test system is Nakaseomyces glabratus. Nature of the data set: Fungicidal activity against Candida glabrata incubated overnight. In kind it is functional.
Data set [24] relates to Salmonella typhimurium. Nature of the data set: Antibacterial activity against Salmonella typhimurium incubated for 16 to 20 hrs. The settings on record: Salmonella enterica; time 16-20 hrs. In kind it is functional, Salmonella enterica subsp. enterica serovar Typhimurium.
In data set [25] the test system is Klebsiella pneumoniae. Nature of the data set: Bactericidal activity against NDM Klebsiella pneumoniae incubated overnight. In kind it is functional.
The subject of data set [26] is Klebsiella aerogenes. The experiment in a line: Bactericidal activity against Enterobacter aerogenes incubated overnight. In kind it is functional.
The test system of data set [27] is Klebsiella oxytoca. Nature of the data set: Bactericidal activity against Klebsiella oxytoca incubated overnight. The class given is functional.
Data set [28] has as its system Streptococcus iniae. The experiment in a line: Bactericidal activity against Streptococcus iniae incubated overnight. The class given is functional.
In data set [29] the test system is Enterococcus faecium. Nature of the data set: Bactericidal activity against Enterococcus faecium incubated overnight. The class given is functional.
Data set [30] has as its system Vibrio vulnificus. The experiment in a line: Bactericidal activity against Vibrio vulnificus V2 incubated overnight. In kind it is functional.
The subject of data set [31] is Edwardsiella tarda. The experiment in a line: Antibacterial activity against Edwardsiella tarda incubated for 16 to 20 hrs. The class given is functional. The settings on record: time 16-20 hrs.
Data set [32] relates to Salmonella typhimurium. The experiment in a line: Bactericidal activity against Salmonella typhimurium incubated overnight. In kind it is functional, Salmonella enterica subsp. enterica serovar Typhimurium. The note with it: Salmonella enterica.
The test system of data set [33] is Vibrio vulnificus. Nature of the data set: Antibacterial activity against Vibrio vulnificus V3 incubated for 16 to 20 hrs. In kind it is functional. The note with it: time 16-20 hrs.
Data set [34] relates to Vibrio vulnificus. Nature of the data set: Bactericidal activity against Vibrio vulnificus V3 incubated overnight. In kind it is functional.
The test system of data set [35] is Enterococcus faecium. Nature of the data set: Antibacterial activity against Enterococcus faecium incubated for 16 to 20 hrs. The note with it: time 16-20 hrs. In kind it is functional.
The test system of data set [36] is Enterococcus faecalis. Nature of the data set: Antibacterial activity against Enterococcus faecalis incubated for 16 to 20 hrs. In kind it is functional. The settings on record: time 16-20 hrs.
The subject of data set [37] is Vibrio alginolyticus. Nature of the data set: Bactericidal activity against Vibrio alginolyticus incubated overnight. The class given is functional.
Data set [38] relates to Candida tropicalis. Nature of the data set: Antifungal activity against Candida tropicalis incubated for 16 to 20 hrs. The class given is functional. The note with it: time 16-20 hrs.
The test system of data set [39] is Pseudomonas aeruginosa. Nature of the data set: Antibacterial activity against Pseudomonas aeruginosa incubated for 16 to 20 hrs. The class given is functional. The note with it: time 16-20 hrs.
Data set [40] deals with Vibrio harveyi. The experiment in a line: Bactericidal activity against Vibrio harveyi incubated overnight. The class given is functional.
For data set [41], the system named is Vibrio harveyi. Nature of the data set: Antibacterial activity against Vibrio harveyi incubated for 16 to 20 hrs. The note with it: time 16-20 hrs. The class given is functional.
Data set [42] concerns Klebsiella aerogenes. The experiment in a line: Antibacterial activity against Enterobacter aerogenes incubated for 16 to 20 hrs. The class given is functional. The note with it: time 16-20 hrs.
Data set [43] deals with Escherichia coli. The experiment in a line: Antibacterial activity against Escherichia coli incubated for 16 to 20 hrs. The class given is functional. The note with it: time 16-20 hrs.
Data set [44] has as its system Vibrio vulnificus. The experiment in a line: Bactericidal activity against Vibrio vulnificus V1 incubated overnight. In kind it is functional.
In data set [45] the test system is Edwardsiella tarda. The experiment in a line: Bactericidal activity against Edwardsiella tarda incubated overnight. The class given is functional.
For data set [46], the system named is Vibrio vulnificus. Nature of the data set: Antibacterial activity against Vibrio vulnificus 204 incubated for 16 to 20 hrs. In kind it is functional. The settings on record: time 16-20 hrs.
For data set [47], the system named is Vibrio anguillarum. The experiment in a line: Antibacterial activity against Listonella anguillarum incubated for 16 to 20 hrs. In kind it is functional. The settings on record: time 16-20 hrs.

The MBC is the smallest concentration meeting the test's criterion for killing. Lower therefore signals greater bactericidal potency. H-KKCIAKAILKKADDLLDDLVNP-OH: the MBC against Staphylococcus aureus and against Acinetobacter baumannii was greater than 100 µg/mL throughout. In addition, the hemolysis at 1 h, 100 ug/ml in data set [1] is 0%.

Usually MIC stands for the lowest concentration found to suppress growth. As usually defined, the MFC is the lowest tested concentration that kills the fungus rather than only halting it. A lower MFC goes with more potent killing. As for H-KKCIAKAILKKAKKLLKDLVNP-OH, the MIC with Salmonella enterica [2] was 25 µg/mL; in data set [3], less than 1.56 µg/mL; against Vibrio vulnificus [6], 12.5 µg/mL; against Vibrio alginolyticus [8], 6.25 µg/mL; against Streptococcus iniae [9], 3.12 µg/mL; with Aeromonas hydrophila [11], greater than 100 µg/mL. For the same substance, the MIC against Klebsiella pneumoniae [15] is 50 µg/mL; against Streptococcus agalactiae [17] it was 3.12 µg/mL; with Vibrio vulnificus [19], 12.5 µg/mL; in the data set with Klebsiella oxytoca [20], 50 µg/mL; with Nakaseomyces glabratus [22], greater than 100 µg/mL; in the data set on Salmonella typhimurium [24] it was 100 µg/mL. The minimal inhibitory concentration (MIC) in the data set with Edwardsiella tarda [31] is greater than 100 µg/mL; in the data set with Vibrio vulnificus [33], 12.5 µg/mL; in the data set with Enterococcus faecium [35], greater than 100 µg/mL; in the data set on Enterococcus faecalis [36] it was 50 µg/mL; in the data set on Candida tropicalis [38], greater than 100 µg/mL; with Pseudomonas aeruginosa [39], 100 µg/mL. Moreover, the MIC was greater than 100 µg/mL in the data set with Vibrio harveyi [41]; 12.5 µg/mL with Klebsiella aerogenes [42]; 50 µg/mL against Escherichia coli [43]; 12.5 µg/mL in the data set on Vibrio vulnificus [46]; 50 µg/mL against Vibrio anguillarum [47]. The MBC is 3.12 µg/mL against Streptococcus agalactiae [4]; 25 µg/mL against Salmonella enterica [5]; greater than 100 µg/mL against Pseudomonas aeruginosa [7]; 50 µg/mL in the data set with Escherichia coli [10]; greater than 100 µg/mL in the data set with Staphylococcus aureus; greater than 100 µg/mL with Aeromonas hydrophila [13]. For the same substance, the MBC is 100 µg/mL in the data set with Vibrio anguillarum [14]; less than 1.56 µg/mL in data set [16]; 12.5 µg/mL in the data set with Vibrio vulnificus [18]; greater than 100 µg/mL in the data set with Enterococcus faecalis [21]; 50 µg/mL against Klebsiella pneumoniae [25]; 12.5 µg/mL against Klebsiella aerogenes [26]. In addition, the MBC was 50 µg/mL in the data set on Klebsiella oxytoca [27]; 3.12 µg/mL against Streptococcus iniae [28]; greater than 100 µg/mL in the data set on Enterococcus faecium [29]; 12.5 µg/mL against Vibrio vulnificus [30]; 100 µg/mL against Salmonella typhimurium [32]; 12.5 µg/mL with Vibrio vulnificus [34]. Further, the minimal bactericidal concentration (MBC) with Vibrio alginolyticus [37] was 6.25 µg/mL; in the data set on Vibrio harveyi [40], greater than 100 µg/mL; in the data set with Acinetobacter baumannii it was 1.56 µg/mL; in the data set with Vibrio vulnificus [44] it was 12.5 µg/mL; with Edwardsiella tarda [45], greater than 100 µg/mL. For the same substance, the minimum fungicidal concentration (MFC) in the data set on Candida tropicalis [12] and in the data set on Nakaseomyces glabratus [23] was greater than 100 µg/mL each time. Moreover, in [1], the hemolysis at 1 h, 100 ug/ml was 3.7%.

H-KKCIAKAILKKAKKLLDDLVNP-OH: the MBC against Staphylococcus aureus was greater than 100 µg/mL; in the data set with Acinetobacter baumannii, 6.25 µg/mL. Further, the hemolysis at 1 h, 100 ug/ml in data set [1] worked out at 0%.

For H-FDWDSVLKGVEGFVRGYF-OH, the MBC against Staphylococcus aureus and in the data set on Acinetobacter baumannii was greater than 100 µg/mL throughout. Further, in data set [1], the hemolysis at 1 h, 100 ug/ml worked out at 15.2%.

Turning to H-FKWKSVLKIVDIFVDIYF-OH, the MBC with Staphylococcus aureus and against Acinetobacter baumannii was greater than 100 µg/mL in each case. Besides, the hemolysis at 1 h, 100 ug/ml in [1] is 67.8%.

In the case of H-FKWKSVLKIVKIFVDIYF-OH, the minimum bactericidal concentration (MBC) with Staphylococcus aureus and against Acinetobacter baumannii was greater than 100 µg/mL in each case. Further, the hemolysis at 1 h, 100 ug/ml in data set [1] amounted to 48.1%.

Consider H-FKDKSVLKIVDIFVDIYF-OH, for which the MBC against Staphylococcus aureus and against Acinetobacter baumannii was greater than 100 µg/mL throughout. For the same substance, the hemolysis at 1 h, 100 ug/ml in [1] was 2.7%.

Turning to H-FKDKSVLKIVKIFVDIYF-OH, the MBC with Staphylococcus aureus and with Acinetobacter baumannii was greater than 100 µg/mL each time. The hemolysis at 1 h, 100 ug/ml in data set [1] was determined as 16.3%.

Take H-KKCIAKAILKKAKDLLDDLVNP-OH: the results for the MBC in the data set on Staphylococcus aureus and against Acinetobacter baumannii were greater than 100 µg/mL and 50 µg/mL, respectively. Also, the hemolysis at 1 h, 100 ug/ml in [1] was determined as 0%.

For H-GKCIAKAILKGAKKLLKKLVNP-OH, the results for the MBC in the data set on Staphylococcus aureus and against Acinetobacter baumannii were 100 µg/mL and 1.56 µg/mL, respectively. In [1], the hemolysis at 1 h, 100 ug/ml was 31.8%.
